# Measured values taken from patent US10172822B2, “Pharmaceutical use of 3-benzylsulfonylpropionitrile” (Olatec Therapeutics LLC, priority 2013, dated 2019).
# Columns and labels:
# [1] = system: arachidonic acid-induced ear swelling; test: topical arachidonic acid-induced ear swelling model in mice; type: in vivo
# Procedure: The test compound, indomethacin (positive control), and vehicle were evaluated for anti-inflammatory activity in a topical arachidonic acid-induced ear swelling model in mice. Male ICR mice weighing 22±2 g were used and randomly divided; the test compound and vehicle control had 10 mice, and indomethacin had 5 mice. Arachidonic Acid (0.5 mg in 20 μl of acetone:ethanol/1:1) was applied topically to the anterior and posterior surfaces of the right ear of each mice. Test substances and vehicle, as listed in Table 1 were similarly applied 30 min before and 15 min after arachidonic acid application. The thickness of the right ear and the left ear was measured and the difference calculated as an indication of the inflammation in the right ear. Ear swelling was measured by a Dyer model micrometer gauge at 60 and 90 minutes after arachidonic acid application as an index of inflammation. Percent inhibition was calculated according to the formula: Ic−It/Ic×100, where Ic and It refers to increase of ear thickness (mm) in control and treated mice, respectively. ANOVA and Dunnett's test were employed to ascertain significant difference between vehicle control and treated groups. Significance is set at P<0.05 level.
# [2] = system: tail flick reaction to heat; test: tail flick test in mice (49° C. water bath); type: in vivo
# Procedure: The tail flick test is a test of the pain response in animals. The tail flick test is used in basic pain research and to measure the effectiveness of analgesics, by observing the tail flick reaction to heat in an animal. This test assesses the nociceptive response to a local pain stimulus, and the ability of a drug to inhibit this response.
# Vehicle control (DMSO) and test compound 3-benzylsulfonylpropionitrilein in DMSO were administered by oral gavage to mice with a volume of 5 mL/kg, immediately prior to testing, at time zero. The test compound was administered at a dosage of 500 mg/kg in DMSO. Positive control morphine in water was administered at time zero by subcutaneous injection at 8 mg/kg to mice. […] The purpose of morphine is […] to serve as a comparison with the test compound. Each group had 10 mice.
# The response of mice to heat stimulus was evaluated by measuring the time of tail-flick or tail-flick latency from 49° C. water bath. Briefly, the animal was held with its tail hanging down. Approximately 2 inches of the tail was immersed in a beaker of water at 38±1° C. for about 30 seconds, and this was done twice to acclimate the animal to the procedure.
# Subsequently, approximately 2 inches of the tail was immersed in a beaker of water at 49±1° C., at which point a timer was started.
# Tail flick measurements were made at 0, 30, 60, and 120 minutes post administration of the dosage of test compound, vehicle, or morphine. An ANOVA was done, and if p<0.05, a Dunnett's t test was employed to calculate significant difference between vehicle control and test compound treated groups. A pairwise Student's t test was used to calculate differences between the morphine group and the control group. […] Analysis with p-values <0.05 is considered significant.
structure (smiles),measurement,setting,value
"N#CCCS(=O)(=O)Cc1ccccc1 [3-Benzylsulfonylpropionitrile, 3-benzylsulfonylpropionitrile]",anti-inflammatory activity in the mouse ear swelling model,"[1]; applied topically, inflammation induced by arachidonic acid",anti-inflammatory
same,tail flick latency compared with vehicle-treated mice,"[2]; oral administration 500 mg/kg in DMSO, 30, 60, and 120 minutes post dosing",statistically significant tail flick latency
CN1CC[C@]23c4c5ccc(O)c4O[C@H]2[C@@H](O)C=C[C@H]3[C@H]1C5 [morphine],tail flick latency compared with vehicle-treated mice,"[2]; subcutaneous injection 8 mg/kg, 30 and 60 minutes post dosing",statistically significant tail flick latency
same,tail flick latency compared with vehicle-treated mice,"[2]; subcutaneous injection 8 mg/kg, 120 minutes post dosing",not
"COc1ccc2c(c1)c(CC(=O)O)c(C)n2C(=O)c1ccc(Cl)cc1 [Indomethacin, indomethacin, reference compound]",% Inhibition of ear swelling,"[1]; topical application 30 min before and 15 min after arachidonic acid, measured at 90 minutes after arachidonic acid, relative to vehicle",58%
